Test results reported in publication PMC11905336, “Pyrrole‐Tethered Bisbenzoxazole Derivatives: Apoptosis‐Inducing Agents Targeting Breast Cancer Cells” (Chemical Biology & Drug Design, 2025).

The compounds below were run on HDFa cell lines (assay: Cytotoxicity on healthy dermal fibroblasts (MTT / xCELLigence real-time cell analysis)). Settings: Homo sapiens, 24 h, values greater than 100 not calculated, read-out: IC50 (μM) for HDFa cell lines, 24 h.
Type: cell-based
Procedure: The cytotoxicity of these derivatives was also assessed in dermal fibroblast cells using xCELLigence analysis as detailed in the Supporting Information.
(§1) The human dermal fibroblast (HDFa) and human breast cancer cells (MCF‐7) were obtained from the American Type Culture Collection (ATCC; Manassas, VA, USA). Cells were cultured in RPMI medium (MCF‐7) and DMEM medium (HDFa) was supplemented with 10% FBS, 1% penicillin–streptomycin, 1% amphotericin, and 2.5% L‐glutamine at 37°C in a 5% CO2 incubator.
xCELLigence Real‐Time Cell Analysis. The xCELLigence system (Real‐Time Cell Analyzer (RTCA) Dual Plate (DP) (Roche Diagnostics GmbH, Penzberg)) was used for real‐time monitoring of cell viability without the need for labeling. A total of 1 × 10^4 HDFa cells were seeded into each well of the E‐plate, and the cell proliferation curve was monitored for 24 h. […] The Cell Index (CI) value was automatically measured every hour for each well using RTCA Software (version 1.2.1) (Yetkin et al. [2021]; Yıldırım et al. [2022]).

**Q.** With `c1ccc2oc(-c3ccc(-c4nc5ccccc5o4)[nH]3)nc2c1` [Compound B1, 2,5‐Bis(Benzo[d]Oxazol‐2‐Yl)‐1H‐Pyrrole] as the compound, how does the IC50 read?
**A.** 89.4 ± 1.23 µM

**Q.** For `Cc1ccc2oc(-c3ccc(-c4nc5cc(C)ccc5o4)[nH]3)nc2c1` [Compound B2, 2,5‐Bis(5‐Methylbenzo[d]Oxazol‐2‐Yl)‐1H‐Pyrrole], which IC50 is on record?
**A.** 96.3 ± 1.03 µM

**Q.** Which IC50 does the source give for `Cc1ccc2nc(-c3ccc(-c4nc5ccc(C)cc5o4)[nH]3)oc2c1` [Compound B3, 2,5‐Bis(6‐Methylbenzo[d]Oxazol‐2‐Yl)‐1H‐Pyrrole] here?
**A.** ≥ 100 µM

**Q.** With `COc1ccc2oc(-c3ccc(-c4nc5cc(OC)ccc5o4)[nH]3)nc2c1` [Compound B4, 2,5‐Bis(5‐Methoxybenzo[d]Oxazol‐2‐Yl)‐1H‐Pyrrole] as the compound, how does the IC50 read?
**A.** 97.3 ± 1.34 µM

**Q.** With `Clc1ccc2oc(-c3ccc(-c4nc5cc(Cl)ccc5o4)[nH]3)nc2c1` [Compound B5, 2,5‐Bis(5‐Chlorobenzo[d]Oxazol‐2‐Yl)‐1H‐Pyrrole] as the compound, how does the IC50 read?
**A.** 95.3 ± 1.92 µM

**Q.** For `Cc1ccc2oc(-c3ccc(-c4nc5ccccc5o4)[nH]3)nc2c1` [Compound B6, 2‐(5‐(Benzo[d]Oxazol‐2‐Yl)‐1H‐Pyrrol‐2‐Yl)‐5‐Methylbenzo[d]Oxazole], which IC50 is on record?
**A.** 98.5 ± 1.02 µM

Same assay, conditions: Homo sapiens, 72 h, values greater than 100 not calculated, read-out: IC50 (μM) for HDFa cell lines, 72 h

**Q.** For `c1ccc2oc(-c3ccc(-c4nc5ccccc5o4)[nH]3)nc2c1` [Compound B1, 2,5‐Bis(Benzo[d]Oxazol‐2‐Yl)‐1H‐Pyrrole], which IC50 is on record?
**A.** ≥ 100 µM

**Q.** Which IC50 does the source give for `Cc1ccc2oc(-c3ccc(-c4nc5cc(C)ccc5o4)[nH]3)nc2c1` [Compound B2, 2,5‐Bis(5‐Methylbenzo[d]Oxazol‐2‐Yl)‐1H‐Pyrrole] here?
**A.** 99.3 ± 1.03 µM

**Q.** With `Cc1ccc2nc(-c3ccc(-c4nc5ccc(C)cc5o4)[nH]3)oc2c1` [Compound B3, 2,5‐Bis(6‐Methylbenzo[d]Oxazol‐2‐Yl)‐1H‐Pyrrole] as the compound, how does the IC50 read?
**A.** ≥ 100 µM

**Q.** For `COc1ccc2oc(-c3ccc(-c4nc5cc(OC)ccc5o4)[nH]3)nc2c1` [Compound B4, 2,5‐Bis(5‐Methoxybenzo[d]Oxazol‐2‐Yl)‐1H‐Pyrrole], which IC50 is on record?
**A.** ≥ 100 µM

**Q.** Which IC50 does the source give for `Clc1ccc2oc(-c3ccc(-c4nc5cc(Cl)ccc5o4)[nH]3)nc2c1` [Compound B5, 2,5‐Bis(5‐Chlorobenzo[d]Oxazol‐2‐Yl)‐1H‐Pyrrole] here?
**A.** ≥ 100 µM

**Q.** How did the IC50 turn out when `Cc1ccc2oc(-c3ccc(-c4nc5ccccc5o4)[nH]3)nc2c1` [Compound B6, 2‐(5‐(Benzo[d]Oxazol‐2‐Yl)‐1H‐Pyrrol‐2‐Yl)‐5‐Methylbenzo[d]Oxazole] was run?
**A.** 99.1 ± 1.73 µM

Same assay, conditions: Homo sapiens, read-out: IC50 (μM) for HDFa cell lines, 48 h, values greater than 100 not calculated

**Q.** Which IC50 does the source give for `c1ccc2oc(-c3ccc(-c4nc5ccccc5o4)[nH]3)nc2c1` [Compound B1, 2,5‐Bis(Benzo[d]Oxazol‐2‐Yl)‐1H‐Pyrrole] here?
**A.** 89.93 ± 0.43 µM

**Q.** `Cc1ccc2oc(-c3ccc(-c4nc5cc(C)ccc5o4)[nH]3)nc2c1` [Compound B2, 2,5‐Bis(5‐Methylbenzo[d]Oxazol‐2‐Yl)‐1H‐Pyrrole] was tested. Which IC50 did it give?
**A.** 94.3 ± 1.56 µM

**Q.** `Cc1ccc2nc(-c3ccc(-c4nc5ccc(C)cc5o4)[nH]3)oc2c1` [Compound B3, 2,5‐Bis(6‐Methylbenzo[d]Oxazol‐2‐Yl)‐1H‐Pyrrole] was tested. Which IC50 did it give?
**A.** ≥ 100 µM

**Q.** Which IC50 does the source give for `COc1ccc2oc(-c3ccc(-c4nc5cc(OC)ccc5o4)[nH]3)nc2c1` [Compound B4, 2,5‐Bis(5‐Methoxybenzo[d]Oxazol‐2‐Yl)‐1H‐Pyrrole] here?
**A.** 99.23 ± 0.32 µM

**Q.** With `Clc1ccc2oc(-c3ccc(-c4nc5cc(Cl)ccc5o4)[nH]3)nc2c1` [Compound B5, 2,5‐Bis(5‐Chlorobenzo[d]Oxazol‐2‐Yl)‐1H‐Pyrrole] as the compound, how does the IC50 read?
**A.** 97.5 ± 2.93 µM

**Q.** Which IC50 does the source give for `Cc1ccc2oc(-c3ccc(-c4nc5ccccc5o4)[nH]3)nc2c1` [Compound B6, 2‐(5‐(Benzo[d]Oxazol‐2‐Yl)‐1H‐Pyrrol‐2‐Yl)‐5‐Methylbenzo[d]Oxazole] here?
**A.** 99 ± 1.76 µM

These compounds were tested on MCF‐7 cell lines (assay: MTT assay, cytotoxicity on MCF-7 cells). Settings: Homo sapiens, MCF7, read-out: IC50 (μM) for MCF‐7 cell lines; MTT, 48 h.
Type: cell-based, human
Procedure: The cytotoxic effects of PTB derivatives on MCF‐7 breast cancer cells were evaluated using the MTT assay at various concentrations (100 nM, 1 μM, 10 μM, 50 μM, and 100 μM).
as §1
MTT Method. The MTT method is used to detect and quantify living organisms cultured with the method colorimetrically. This method relies on intact mitochondria cleaving the tetrazolium ring of the MTT dye. The MTT substance is absorbed and reduced to a colorful, water‐insoluble formazan by a mitochondria‐dependent reaction. Cell viability is measured based on the MTT reduction property, and the density of dye obtained from MTT analysis indicates the number of viable cells. In this study, cell viability was assessed using the MTT (0.5 mg/mL) solution that was added to each well. […] After adding properties to cultures, they were kept at 37°C for 24 h and overnight. Then, at 48 and 72 h after applying the molecules, 10 μL of MTT was added to each well and incubated under similar conditions for 4 h. Absorbance spectrophotometry was performed at a wavelength of 570 nm using the IC50 = [(control absorbents‐sample absorbents)/control absorbents] × 100 calculation method (Khorsandi et al. [2017]).

**Q.** How did the IC50 turn out when `c1ccc2oc(-c3ccc(-c4nc5ccccc5o4)[nH]3)nc2c1` [Compound B1, 2,5‐Bis(Benzo[d]Oxazol‐2‐Yl)‐1H‐Pyrrole] was run?
**A.** 2.96 ± 1.02 µM

**Q.** How did the IC50 turn out when `Cc1ccc2oc(-c3ccc(-c4nc5cc(C)ccc5o4)[nH]3)nc2c1` [Compound B2, 2,5‐Bis(5‐Methylbenzo[d]Oxazol‐2‐Yl)‐1H‐Pyrrole] was run?
**A.** 4.5 ± 0.23 µM

**Q.** With `Cc1ccc2nc(-c3ccc(-c4nc5ccc(C)cc5o4)[nH]3)oc2c1` [Compound B3, 2,5‐Bis(6‐Methylbenzo[d]Oxazol‐2‐Yl)‐1H‐Pyrrole] as the compound, how does the IC50 read?
**A.** 4.38 ± 0.98 µM

**Q.** For `COc1ccc2oc(-c3ccc(-c4nc5cc(OC)ccc5o4)[nH]3)nc2c1` [Compound B4, 2,5‐Bis(5‐Methoxybenzo[d]Oxazol‐2‐Yl)‐1H‐Pyrrole], which IC50 is on record?
**A.** 4.19 ± 1.86 µM

**Q.** How did the IC50 turn out when `Clc1ccc2oc(-c3ccc(-c4nc5cc(Cl)ccc5o4)[nH]3)nc2c1` [Compound B5, 2,5‐Bis(5‐Chlorobenzo[d]Oxazol‐2‐Yl)‐1H‐Pyrrole] was run?
**A.** 2.69 ± 2.01 µM

**Q.** `Cc1ccc2oc(-c3ccc(-c4nc5ccccc5o4)[nH]3)nc2c1` [Compound B6, 2‐(5‐(Benzo[d]Oxazol‐2‐Yl)‐1H‐Pyrrol‐2‐Yl)‐5‐Methylbenzo[d]Oxazole] was tested. Which IC50 did it give?
**A.** 3.09 ± 1.23 µM

Same assay, conditions: Homo sapiens, MCF7; MTT, 24 h; read-out: IC50 (μM) for MCF‐7 cell lines, 24 h

**Q.** `c1ccc2oc(-c3ccc(-c4nc5ccccc5o4)[nH]3)nc2c1` [Compound B1, 2,5‐Bis(Benzo[d]Oxazol‐2‐Yl)‐1H‐Pyrrole] was tested. Which IC50 did it give?
**A.** 3.89 ± 1.15 µM

**Q.** Which IC50 does the source give for `Cc1ccc2oc(-c3ccc(-c4nc5cc(C)ccc5o4)[nH]3)nc2c1` [Compound B2, 2,5‐Bis(5‐Methylbenzo[d]Oxazol‐2‐Yl)‐1H‐Pyrrole] here?
**A.** 4.6 ± 2.2 µM

**Q.** For `Cc1ccc2nc(-c3ccc(-c4nc5ccc(C)cc5o4)[nH]3)oc2c1` [Compound B3, 2,5‐Bis(6‐Methylbenzo[d]Oxazol‐2‐Yl)‐1H‐Pyrrole], which IC50 is on record?
**A.** 3.3 ± 1.96 µM

**Q.** With `COc1ccc2oc(-c3ccc(-c4nc5cc(OC)ccc5o4)[nH]3)nc2c1` [Compound B4, 2,5‐Bis(5‐Methoxybenzo[d]Oxazol‐2‐Yl)‐1H‐Pyrrole] as the compound, how does the IC50 read?
**A.** 4.56 ± 1.56 µM

**Q.** With `Clc1ccc2oc(-c3ccc(-c4nc5cc(Cl)ccc5o4)[nH]3)nc2c1` [Compound B5, 2,5‐Bis(5‐Chlorobenzo[d]Oxazol‐2‐Yl)‐1H‐Pyrrole] as the compound, how does the IC50 read?
**A.** 3.73 ± 1.05 µM

**Q.** How did the IC50 turn out when `Cc1ccc2oc(-c3ccc(-c4nc5ccccc5o4)[nH]3)nc2c1` [Compound B6, 2‐(5‐(Benzo[d]Oxazol‐2‐Yl)‐1H‐Pyrrol‐2‐Yl)‐5‐Methylbenzo[d]Oxazole] was run?
**A.** 2.81 ± 0.76 µM

Same assay, conditions: Homo sapiens, MCF7; MTT, 72 h; read-out: IC50 (μM) for MCF‐7 cell lines, 72 h

**Q.** With `c1ccc2oc(-c3ccc(-c4nc5ccccc5o4)[nH]3)nc2c1` [Compound B1, 2,5‐Bis(Benzo[d]Oxazol‐2‐Yl)‐1H‐Pyrrole] as the compound, how does the IC50 read?
**A.** 3.13 ± 1.12 µM

**Q.** With `Cc1ccc2oc(-c3ccc(-c4nc5cc(C)ccc5o4)[nH]3)nc2c1` [Compound B2, 2,5‐Bis(5‐Methylbenzo[d]Oxazol‐2‐Yl)‐1H‐Pyrrole] as the compound, how does the IC50 read?
**A.** 2.06 ± 1.67 µM

**Q.** For `Cc1ccc2nc(-c3ccc(-c4nc5ccc(C)cc5o4)[nH]3)oc2c1` [Compound B3, 2,5‐Bis(6‐Methylbenzo[d]Oxazol‐2‐Yl)‐1H‐Pyrrole], which IC50 is on record?
**A.** 3.53 ± 0.65 µM

**Q.** `COc1ccc2oc(-c3ccc(-c4nc5cc(OC)ccc5o4)[nH]3)nc2c1` [Compound B4, 2,5‐Bis(5‐Methoxybenzo[d]Oxazol‐2‐Yl)‐1H‐Pyrrole] was tested. Which IC50 did it give?
**A.** 3.11 ± 0.56 µM

**Q.** Which IC50 does the source give for `Clc1ccc2oc(-c3ccc(-c4nc5cc(Cl)ccc5o4)[nH]3)nc2c1` [Compound B5, 2,5‐Bis(5‐Chlorobenzo[d]Oxazol‐2‐Yl)‐1H‐Pyrrole] here?
**A.** 3.28 ± 1.32 µM

**Q.** How did the IC50 turn out when `Cc1ccc2oc(-c3ccc(-c4nc5ccccc5o4)[nH]3)nc2c1` [Compound B6, 2‐(5‐(Benzo[d]Oxazol‐2‐Yl)‐1H‐Pyrrol‐2‐Yl)‐5‐Methylbenzo[d]Oxazole] was run?
**A.** 3.02 ± 0.89 µM
